This is an account of results in patent US20090269409A1, “PHARMACEUTICAL COMPOSITIONS COMPRISING ESZOPICLONE” (priority 2008, published 2009).

As usually defined, the solubility is the concentration that dissolves in the medium under given conditions. Lower therefore signals a poorly soluble substance.

Data set [1] is described as follows: Saturated solubility of eszopiclone in various solvents (shake flask, HPLC). The format is physicochemical. To be noted: thermodynamic from solid, room temperature. The procedure: 1) 100 mL of the solvent was placed into a 250 mL volumetric flask.
2) 10 mg of eszopiclone was added to the flask.
3) The flask contents were mixed for 24 hours using a rotary shaker to dissolve the eszopiclone completely.
4) Eszopiclone was added at room temperature to the clear solution of 3) in small amounts (up to about 100 mg) until undissolved eszopiclone was noted after shaking.
5) The flask was subjected to shaking for an additional 24 hours.
6) Presence of insoluble eszopiclone was checked and the pH of the solution was recorded.
7) A portion of step 6) solution was subjected to centrifugation until a clear solution was obtained, and/or was filtered through an ASTM #40 mesh sieve.
8) Content of the drug substance was determined using HPLC, comparing with a standard solution prepared preferably in the same solvent.
9) Amount of the drug substance dissolved was calculated as a percentage (weight/volume): […]
The actual amount of drug substance dissolved in mg is:
The solubility of the drug substance in mg/ml in the solvent medium tested is: S=m÷100.
Saturated solubility was determined in solvents as described below.

Data set [2] is described as follows: Excipient compatibility and stability study of eszopiclone/excipient mixtures (impurity analysis before and after storage). The format is physicochemical. As for the experimental part:
1) Eszopiclone and excipient in the stated ratios were mixed well and sifted through an ASTM #40 mesh sieve.
2) The mixture was placed into 20 mL amber glass vials and stored under conditions of 40° C. and 75% relative humidity (RH), or at 50° C., for 1 month. Impurity analyses were performed before and after storage, and values in the table below are percentages of the initial eszopiclone content.

Data set [3] is described as follows: Observed susceptibility of eszopiclone to degradation. The format is physicochemical. As to conditions: with significant increase in the 5-chloro-2-aminopyridine content.
For data set [4] the following is noted: cited from earlier work.
[5] abbreviates: 1 Month, 40° C./75% RH, amber glass vials.
Where [6] appears, read: 1 Month, 50° C., amber glass vials.

In brackets after ≈: the same amount, converted by molar mass. Like-named read-outs stand apart in the source and are kept apart here.

With `CN1CCN(C(=O)O[C@H]2c3nccnc3C(=O)N2c2ccc(Cl)cn2)CC1` [Eszopiclone, (+)-(5S)-6-(5-chloropyridin-2-yl)-7-oxo-6,7-dihydro-[3,4-b]pyrazin-5-yl-4-methylpiperazine-1-carboxylate], the solubility at 24 h was 11600 µg/mL (≈ 29.9 mM) in data set [1] (aqueous buffer, Acetate buffer (pH 4.5)); 680 µg/mL (≈ 1.75 mM) in data set [1] (aqueous buffer, Phosphate buffer (pH 6.8)); 330 µg/mL (≈ 0.849 mM) in data set [1] (aqueous buffer, Phosphate buffer (pH 7.5)); 1830 µg/mL (≈ 4.71 mM) in data set [1] (aqueous with cosolvent or surfactant or cyclodextrin, 0.5% Sodium lauryl sulphate in water); 4180 µg/mL (≈ 10.8 mM) in data set [1] (simulated gastric fluid, 0.01N HCl); 39100 µg/mL (≈ 101 mM) in data set [1] (simulated gastric fluid, 0.1N Hydrochloric acid (pH 1.2)). Besides, the solubility at 24 h was 23000 µg/mL (≈ 59.2 mM) in data set [1] (simulated gastric fluid, Acid buffer (pH 1), potassium chloride/HCl); 8180 µg/mL (≈ 21 mM) in data set [1] (Simulated gastric fluid (pH 1.2)); 300 µg/mL (≈ 0.772 mM) in data set [1] (Water). The “Imp (5-chloro-2-aminopyridine)” value in data set [2] (setting [5]) is 0.47 percentages of the initial eszopiclone content; in data set [2] (setting [6]), 0.35 percentages of the initial eszopiclone content; in data set [2] (Initial) it was 0.01 percentages of the initial eszopiclone content. For the same compound, the “T.I. (Total impurities)” value is 0.33 percentages of the initial eszopiclone content in data set [2] (setting [5]), 0.5 percentages of the initial eszopiclone content in data set [2] (setting [6]) and 0.02 percentages of the initial eszopiclone content in data set [2] (Initial). In data set [3], the “Susceptibility to oxidative degradation (including by atmospheric oxygen) and acid hydrolysis” value was “highly susceptible”. For the same compound, the “Solubility (descriptive)” value in data set [4] (in ethanol) is on record as “slightly soluble”; in data set [4] (in phosphate buffer of pH 3.2), “soluble”; in data set [4] (in water), “very slightly soluble”.
